Data set [1] in a line: Pharmacokinetic study (mouse), levels of API after prodrug dosing. Format: in vivo. To be noted: mice, 10 mg/kg p.o., 1 h, 2 h, 4 h; for brain levels of API (example 1 compound): brain at 0.5 h, LCMS (FIG. 2); for liver levels of API (example 1 compound): liver at 0.5 h, LCMS (FIG. 3); for plasma levels of API (example 1 compound): plasma at 0.5 h, LCMS (FIG. 1). How it is done: Pharmacokinetic studies (mouse) were performed on the example 1, 6-P, 8-P, and 11-P compounds of the present invention. The example 1, 6-P, 8-P, and 11-P compounds were dosed in mice at 10 mg/kg p.o. (n=2). Plasma, brain, and liver were harvested at 0.5 h, 1 h, 2 h, and 4 h. The samples were analyzed by LCMS to determine levels of the example 1 compound, i.e., the active pharmaceutical ingredient (API) for prodrug examples 6-P, 8-P, and 11-P.

Data set [2] concerns TNF-α production by BV2 cells or PBMC. Briefly: Cellular assay to measure TNF-α inhibition (LPS-stimulated, ELISA). Format: cell-based, murine (BV2) or human (PBMC). To be noted: BV2 cells or PBMC (not specified), LPS 100 ng/ml over 24 hours, relative to DMSO vehicle; compound concentration not stated.
Data set [3] can be described thus: Microsome stability assay, human liver microsomes. To be noted: pH 7.4, 1 μM test compound, NADPH 1 mM, 37° C., 0-40 mins, read-out: HLM t1/2. Format: in vitro ADME. How it is done:
(§1) Microsome Stability Assay Protocol
(§2) Human liver microsomes (Corning #452117 lot 38291) or Mouse liver microsomes (Corning #452701, lot #6328004) were separately combined at a final concentration of […] with KxPO4 pH 7.4 (100 mM), MgCl2 (10 mM), and test compound (1 μM) and pre-incubated (10 min, 37° C.). Next, NADPH (1 mM) was added to begin reactions (total volume 100 μL). At various time points (0, 10, 20, and 40 mins), reactions were quenched with Clem stop solution (100 μL, 625 ng/mL) (Cyprotex) in Acetonitrile. Samples were centrifuged at 4000 g for 20 mins, diluted (75 μL into 75 μL 0.1% formic acid in water), and analyzed by LC-MS/MS.
On the technique in general: Liver microsomes are vesicles of endoplasmic reticulum, rich in cytochrome P450 enzymes.

Data set [4] can be described thus: Microsome stability assay, mouse liver microsomes. In kind it is in vitro ADME. To be noted: pH 7.4, 1 μM test compound, NADPH 1 mM, 37° C., 0-40 mins, read-out: MLM t1/2. How it is done: as §1, §2
Data set [5] concerns Caco-2 cells. Briefly: Caco-2 permeability assay. To be noted: 10 μM, HBSS pH 7.4, 37° C., 2 h; for Caco2 A → B: without elacridar; for Caco2 A → B w/ elacridar: with elacridar as transporter inhibitor. Background: Caco-2 cells form a polarised layer with tight junctions and transporters.
Description: Caco-2 Permeability Assay Protocol
(§3) Caco-2 cells were maintained in DMEM in an atmosphere of 5% CO2. For transport experiments 5×10^5 cells/well of were seeded on polycarbonate filter inserts and allowed to grow and differentiate for 21±4 days before the cell monolayers were used for experiments. Apparent permeability coefficients were determined for A→B and B→A directions with and without the presence of elacridar as a transporter inhibitor. Up to three test items and reference compounds were dissolved in Hank's balanced salt solution at pH 7.4 to yield a final concentration of 10 μM.
(§4) The assays were performed in HBSS containing 25 mM HEPES (pH 7.4) at 37° C. Prior to the study, the monolayers were washed in prewarmed HBSS. At the start of the experiments prewarmed HBSS containing the test items was added to the donor side of the monolayer and HBSS without test items was added to the receiver side. Aliquots of the receiver side were taken over the 2 h incubation period; aliquots of the donor side were taken at 0 hand 2 h. Aliquots were diluted with an equal volume of methanol/water with 0.1% formic acid containing the internal standard. The mixture was analyzed by LC-MS/MS. The apparent permeability coefficients (Papp) were calculated using the formula: Papp=(dCrec/dt)/(A×C0,donor)]×106 with dCrev/dt being the change in concentration in the receiver compartment with time, C0,donor the concentration in the donor compartment at time 0, and A the area of the compartment with the cells.
A short description of data set [6]: Caco-2 permeability assay. To be noted: human, Caco-2, pH 7.4, with elacridar (concentration not stated).
Data set [7] relates to Caco-2 cells. To be noted: human, Caco-2, 2 h, 10 μM, pH 7.4.
Description: Caco-2 Permeability Assay Protocol
as §3, §4
A further data set in a line: in vitro. To be noted: human, Caco-2, pH 7.4.

Like-named read-outs stand apart in the source and are kept apart here.

Description for in vitro: Caco-2 Permeability Assay Protocol
as §3, §4

For the compound `CC(C)(C)c1ccc(-c2nc3ccccc3n2COP(=O)([O-])[O-])cc1.[Na+].[Na+]` [Example 11-P, Disodium ((2-(4-(tert-butyl)phenyl)-1H-benzo[d]imidazol-1-yl)methyl) phosphate], in data set [1], the “brain levels of API (example 1 compound)” value is listed as “measurable amounts”, the “liver levels of API (example 1 compound)” value is given as “measurable amounts” and the “plasma levels of API (example 1 compound)” value (shortened to “plasma levels of API”) is recorded as “measurable amounts”.

As for `[2H]c1cc([2H])c2nc(-c3ccc(C(C)(C)C)cc3)[nH]c2c1` [Example 61, 2-(4-tert-Butylphenyl)-4,6-dideuterio-1H-benzo[d]imidazole], the “TNF α Inhibition” value in data set [2] is recorded as “A (A = >80% inh.)”. Moreover, the half-life at 1 μM came out at 13.6 min in data set [3] and 23.8 min in data set [4]. Besides, the “Caco2 A → B” value in the data set on Caco-2 cells [5] is listed as 15.5 nm/s. The compound further showed an apical-to-basolateral permeability (Papp A→B) at 2 h, 10 μM in data set [6] of 1.06 ×10⁻⁶ cm/s.

For the compound `CC(C)(C)c1cccc(-c2nc3c(F)cc(F)cc3[nH]2)c1` [Example 77, 2-(3-tert-Butylphenyl)-4,6-difluoro-1H-benzo[d]imidazole], the “TNF α Inhibition” value in data set [2] is given as “A (A = >80% inh.)”. Further, the half-life at 1 μM came to 31.3 min in data set [3] and 10.5 min in data set [4]. Also, in the data set with Caco-2 cells [5], the “Caco2 A → B” value came to 13.3 nm/s. Further, in data set [6], the Papp A→B at 2 h, 10 μM was 0.0634 ×10⁻⁶ cm/s.

Turning to `Nc1ccc(-c2nc3ccccc3[nH]2)cc1` [Example 76, 2-(4-Aminophenyl)-1H-benzo[d]imidazole], the “TNF α Inhibition” value in data set [2] is listed as “A (A = >80% inh.)”. The figures for the half-life at 1 μM in data set [3] and in data set [4] were 25.4 min and 8.3 min, respectively. The “Caco2 A → B” value in the data set on Caco-2 cells [5] is given as 47.8 nm/s. Also, the apparent permeability from apical to basolateral (Papp A→B) at 2 h, 10 μM in data set [6] was 3.11 ×10⁻⁶ cm/s.

As for `CC(C)(C)c1ccc(-c2nc3c(F)c(F)c(F)cc3[nH]2)cc1` [Example 64, 2-(4-tert-Butylphenyl)-4,5,6-trifluoro-1H-benzo[d]imidazole], the “TNF α Inhibition” value in data set [2] is “A (A = >80% inh.)”. Further, the half-life at 1 μM in data set [3] was found to be 112 min; in data set [4], 83.1 min. Further, the “Caco2 B → A” value in the data set on Caco-2 cells [5] was determined as 2.54 nm/s. For the same compound, the “Caco2 A → B w/ elacridar” value in the data set with Caco-2 cells [5] is 0.792, nm/s. Further, the Papp A→B at 2 h, 10 μM in data set [6] was found to be 0.00126 ×10⁻⁶ cm/s.

Consider `CC(C)(C)c1ccc(-c2nc3ccccc3n2COC(=O)CCC(=O)O)cc1` [Example 6-P, 4-((2-(4-(tert-Butyl)phenyl)-1H-benzo[d]imidazol-1-yl)methoxy)-4-oxobutanoic acid], for which, in data set [1], the “brain levels of API (example 1 compound)” value is listed as “measurable amounts”, the “liver levels of API (example 1 compound)” value is on record as “measurable amounts” and the “plasma levels of API” value is recorded as “measurable amounts”.

On to `[2H]c1c([2H])c([2H])c2[nH]c(-c3ccc(C(C)(C)C)cc3)nc2c1[2H]` [Example 60, 2-(4-tert-Butylphenyl)-4,5,6,7-tetradeuterio-1H-benzo[d]imidazole], for which, in data set [2], the “TNF α Inhibition” value is “A (A = >80% inh.)”. The results for the half-life at 1 μM in data set [3] and in data set [4] were 14.3 min and 19.8 min, respectively. Further, the “Caco2 B → A” value in the data set on Caco-2 cells [5] is 40.7 nm/s. In addition, the “Caco2 A → B” value in the data set on Caco-2 cells [5] is listed as 15.8 nm/s. In data set [6], this compound came in with a Papp A→B at 2 h, 10 μM of 0.916 ×10⁻⁶ cm/s.

Take `COc1ccc(-c2nc3ccccc3[nH]2)cc1` [Example 21, 2-(4-Methoxy-phenyl)-1H-benzo[d]imidazole]: the “TNF α Inhibition” value in data set [2] is “A (A = >80% inh.)”. In addition, the half-life at 1 μM in data set [3] came out at 4.2 min; in data set [4], 3.2 min. Besides, in the data set with Caco-2 cells [5], the “Caco2 A → B” value is on record as 93.2 nm/s. In data set [6], this compound came in with a Papp A→B at 2 h, 10 μM of 3.31 ×10⁻⁶ cm/s.

As for `CC(C)(C)c1ccc(-c2nc3c(F)cc(F)cc3[nH]2)cc1` [Example 57, 2-(4-tert-Butylphenyl)-4,6-difluoro-1H-benzo[d]imidazole], in data set [2], the “TNF α Inhibition” value was “A (A = >80% inh.)”. Also, the half-life at 1 μM in data set [3] is 99.2 min. The half-life at 1 μM in data set [4] was 46.7 min. In addition, in the data set with Caco-2 cells [5], the “Caco2 B → A” value worked out at 8.42 nm/s and the “Caco2 A → B” value is reported as 11.1 nm/s. In data set [6], the apparent permeability from apical to basolateral (Papp A→B) at 2 h, 10 μM amounted to 0.13 ×10⁻⁶ cm/s.

With `CC(C)(C)c1ccc(-c2nc3c(F)c(F)c(F)c(F)c3[nH]2)cc1` [Example 63, 2-(4-tert-Butylphenyl)-4,5,6,7-tetrafluoro-1H-benzo[d]imidazole], in data set [2], the “TNF α Inhibition” value is “A (A = >80% inh.)”. The half-life at 1 μM in data set [3] worked out at 59.8 min. In addition, in data set [4], the half-life at 1 μM stood at 132 min. Also, in the data set with Caco-2 cells [5], the “Caco2 B → A” value was 1.31 nm/s and the “Caco2 A → B w/ elacridar” value is 0.005 nm/s. The compound also showed a Papp A→B at 2 h, 10 μM in data set [6] of 0.0336 ×10⁻⁶ cm/s.

Consider `CC(C)(C)c1ccc(-c2nc3ccccc3n2COC(=O)c2ccc(CN)cc2)cc1.Cl` [Example 8-P, (4-(((2-(4-(tert-butyl)phenyl)-1H-benzo[d]imidazol-1-yl)methoxy)carbonyl)-phenyl)methylammonium hydrochloride], for which, in data set [1], the “brain levels of API (example 1 compound)” value was “measurable amounts”, the “liver levels of API (example 1 compound)” value is recorded as “measurable amounts” and the “plasma levels of API” value is reported as “measurable amounts”.

Regarding `CC(C)(C)c1ccc(-c2nc3cc(C(F)(F)F)ccc3[nH]2)cc1` [Example 42, 2-(4-tert-Butylphenyl)-5-(trifluoromethyl)-1H-benzo[d]imidazole], the “TNF α Inhibition” value in data set [2] was “A (A = >80% inh.)”. The half-life at 1 μM in data set [3] was 83.8 min; in data set [4], 110 min. Moreover, the “Caco2 B → A” value in the data set with Caco-2 cells [5] is 1.2 nm/s. Also, the “Caco2 A → B” value in the data set on Caco-2 cells [5] is reported as 0.878 nm/s. The compound further had a Papp A→B at 2 h, 10 μM in data set [6] of 0.0408 ×10⁻⁶ cm/s.

For the compound `CC(C)(C)c1ccc(-c2nc3ccccc3[nH]2)cc1` [Example 1, 2-(4-(tert-Butyl)phenyl)-1H-benzo[d]imidazole], the “TNF α Inhibition” value in data set [2] is reported as “A (A = >80% inh.)”. Moreover, the “Caco2 B → A” value in the data set on Caco-2 cells [7] is 31.5 nm/s. For the same compound, the half-life at 1 μM was 14 min in data set [3] and 16.7 min in data set [4]. The compound also registered a Papp A→B at 2 h, 10 μM in “in vitro” of 0.659 ×10⁻⁶ cm/s.

On to `CC(C)(C)c1ccc(-c2cn3ccccc3n2)cc1` [Example 5, 2-(4-tert-Butylphenyl)imidazo[1,2-a]pyridine], for which the “TNF α Inhibition” value in data set [2] was “A (A = >80% inh.)”. The half-life at 1 μM in data set [3] stood at 11.5 min; in data set [4], 8.4 min. Also, the “Caco2 A → B” value with Caco-2 cells [5] is given as 9.86 nm/s. The compound also gave a Papp A→B at 2 h, 10 μM in data set [6] of 0.858 ×10⁻⁶ cm/s.

`CC(C)(C)c1ccc(-c2nc3c(C(F)(F)F)cccc3[nH]2)cc1` [Example 56, 2-(4-tert-Butylphenyl)-4-(trifluoromethyl)-1H-benzo[d]imidazole]: the “TNF α Inhibition” value in data set [2] is “A (A = >80% inh.)”. The half-life at 1 μM in data set [3] came out at 103 min; in data set [4], 23.2 min. In addition, in the data set on Caco-2 cells [5], the “Caco2 B → A” value stood at 1.73 nm/s. The “Caco2 A → B” value in the data set on Caco-2 cells [5] was determined as 0.748 nm/s. In addition, the apparent permeability from apical to basolateral (Papp A→B) at 2 h, 10 μM in data set [6] amounted to 0.0849 ×10⁻⁶ cm/s.

The term Papp A→B denotes how fast a substance crosses the layer from the apical side. The low end stands for slow passage, the high end for fast passage.

Values taken from US11111217B2, “2-arylbenzimidazoles as Ppargc1a activators for treating neurodegenerative diseases” (The Board of Trustees of the Leland Stanford Junior …, priority 2018, dated 2021).
